Patent US20240398773A1, “COMPOSITIONS COMPRISING OTESECONAZOLE” (Mycovia Pharmaceuticals, Inc., priority 2021, published 2024)
Read-outs that look alike come from different tables or passages of the source. Marks after values point to notes of the source that are not given here.

What was measured:
[1] = Study CL-001 single-dose escalation in healthy subjects, plasma PK; assay type: in vivo, human; settings: for Tmax / Vd/F / half-life / Cmax / AUC(0-inf): both sexes, human, plasma
Protocol: Study Oteseconazole CL-001 (hereafter referenced as “CL-001”) was a single-center, Phase 1, double-blind, randomized, placebo-controlled, dose-escalating study in healthy adult subjects.
Sixty-four subjects (43 males and 21 females) between 18 and 55 years of age were enrolled in 8 dose groups. Within each dose group, 6 subjects received oteseconazole and 2 subjects received placebo. In the first 7 cohorts, escalating single oral doses (5, 10, 20, 40, 80, 160, or 320 mg) were administered in the fasted state using 2.5, 20, or 60 mg capsules of oteseconazole or matching placebo. An eighth cohort received a single 320 mg oral dose of oteseconazole or matching placebo after ingesting a high-fat breakfast. Subjects in Cohorts 1 through 6 were followed for 14 days for safety and PK assessments. Visits on Days 28 and 42 were added for Cohorts 7 and 8. Dose escalation proceeded only after safety and PK of the previous dose were determined.
The PK analysis was based on concentration-time data from 36 subjects who received active oteseconazole at doses between 20 mg and 320 mg. The majority of the oteseconazole plasma concentrations in Cohort 1 (5 mg) and Cohort 2 (10 mg) were below the limit of quantification (<20 ng/mL); therefore, no PK analysis could be conducted on these subjects.

[2] = test system: Tinea Pedis; experiment: Study CL-003 therapeutic cure of tinea pedis; assay type: in vivo, human
Description: Even though the target concentrations were not reached for either dose group in this study, oteseconazole was efficacious in treating TP.

[3] = Study CL-005 in subjects with onychomycosis, plasma PK; assay type: in vivo; settings: human; for AUC(0-t): read-out: AUC0-8; for concentration at 12 weeks: after 12 weeks; for concentration at 12 weeks / concentration at 24 weeks: read-out: plasma exposure; for concentration at 24 weeks: after 24 weeks
Protocol: Within each treatment group, oteseconazole plasma exposures increased throughout the dosing regimen from Day 1 to Week 12 or 24. […] Mean Cmax and AUC0-8 values after the Day 14 dose (completion of the loading dose phase of the study) were similar for the 300 mg 12-week and 300 mg 24-week treatment groups, and for the 600 mg 12-week and 600 mg 24-week treatment groups, as expected.

[4] = Study CL-007 DDI and PKE cohorts, plasma PK; assay type: in vivo; design: AUC(0-t) / AUC(0-inf): concentration or dose not given beside the values; settings: human; for AUC(0-t): read-out: AUC0-24
Protocol: The median Tmax was 4.0 hours on Day 3 and 6.0 hours on Day 16. […] The increase in oteseconazole concentrations after 14 days of daily dosing was expected based on the long half-life of oteseconazole and are a consequence of accumulation and not of concomitant administration of midazolam.
The geometric mean AUC0-24 was 26120 h*ng/ml and the geometric mean AUC0-∞ was 57290 h*ng/mL. These values were consistent with the oteseconazole plasma PK parameters calculated on Day 3 in the DDI cohort.

[5] = Study CL-011 plasma concentrations; assay type: in vivo; settings: human
Protocol: A total of 217 subjects were randomized to receive oteseconazole and 109 subjects were randomized to receive placebo. All subjects were followed for 36 weeks after the end of treatment. Blood samples for determination of oteseconazole plasma concentrations were collected at Baseline, Day 14, Week 12, Week 24, Week 36, and Week 48 (End of Study (EOS]). Following the loading dose regimen of 150 mg oteseconazole QD for 7 days, the mean (SD) oteseconazole plasma concentration at Day 14 was 1676.2 (876.27) μg/L.

[6] = test system: acute VVC episodes; experiment: Study CL-017 efficacy versus fluconazole, acute VVC episodes; assay type: in vivo, human
[7] = Cohort 4, single oral 40 mg, fasted, mean
[8] = Cohort 5, single oral 80 mg, fasted, mean
[9] = Cohort 6, single oral 160 mg, fasted, mean
[10] = Cohort 7, single oral 320 mg, Fasted, mean
[11] = Cohort 8, single oral 320 mg, Fed (high-fat breakfast), mean
[12] = po, 40 mg, Cohort 4, single oral 40 mg, fasted, mean
[13] = po, 80 mg, Cohort 5, single oral 80 mg, fasted, mean
[14] = po, 160 mg, Cohort 6, single oral 160 mg, fasted, mean
[15] = po, 320 mg, Cohort 7, single oral 320 mg, Fasted, mean
[16] = po, 320 mg, Cohort 8, single oral 320 mg, Fed (high-fat breakfast), mean
[17] = 300 mg, Day 14, Low Dose (300 mg), 12 weeks
[18] = 300 mg, Day 14, Low Dose (300 mg), 24 weeks
[19] = 600 mg, Day 14, High Dose (600 mg), 12 weeks
[20] = 600 mg, Day 14, High Dose (600 mg), 24 weeks
[21] = DDI Cohort, Day 3, geometric mean
[22] = DDI Cohort, Day 16, geometric mean
[23] = PKE Cohort, Day 1, geometric mean

plasma concentrations with standard high-fat meal versus fasted state ([1]; 320 mg, Cohort 8 versus Cohort 7): higher plasma concentrations
plasma concentrations (majority below the limit of quantification) ([1]; Cohort 1 (5 mg) and Cohort 2 (10 mg)): < 20 ng/mL
Tlag ([1]; Cohort 3, single oral 20 mg, fasted, mean): 1.84 h
CL/F ([1]; Cohort 3, single oral 20 mg, fasted, mean, N = 5): 1.39 ^a L/h
CL/F [1, 7]: 1.30 L/h
Tlag [1, 7]: 1.58 h
CL/F [1, 8]: 1.08 L/h
Tlag [1, 8]: 1.17 h
CL/F [1, 9]: 1.67 L/h
Tlag [1, 9]: 0.75 h
CL/F [1, 10]: 1.35 L/h
Tlag [1, 10]: 0.67 h
CL/F [1, 11]: 0.406 L/h
Tlag [1, 11]: 1.25 h
Tmax ([1]; oral, 4 hours at 80 mg to 10 hours at 40 mg, read-out: Median Tmax, range over doses): 4 to 10 h
Vd/F ([1]; oral, all cohorts, read-out: Vz/F, range of cohort averages): 696 to 1650 L
half-life ([1]; po, 20 mg, Cohort 3, single oral 20 mg, fasted, N = 5): 393 h
Cmax ([1]; po, 20 mg, Cohort 3, single oral 20 mg, fasted, mean): 44.7 ng/mL
AUC(0-inf) ([1]; po, 20 mg, Cohort 3, single oral 20 mg, fasted, mean, N = 5): 16.1 µg·h/mL
Vd/F ([1]; po, 20 mg, Cohort 3, single oral 20 mg, fasted, mean, N = 5, read-out: Vz/F): 696 L
Tmax ([1]; po, 20 mg, Cohort 3, single oral 20 mg, fasted, median, read-out: Tmax): 5.03 h
half-life ([1]; po, 40 mg, Cohort 4, single oral 40 mg, fasted): 548 h
AUC(0-inf) [1, 12]: 35 µg·h/mL
Cmax [1, 12]: 79.7 ng/mL
Vd/F ([1]; po, 40 mg, Cohort 4, single oral 40 mg, fasted, mean, read-out: Vz/F): 939 L
Tmax ([1]; po, 40 mg, Cohort 4, single oral 40 mg, fasted, median, read-out: Tmax): 10 h
half-life ([1]; po, 80 mg, Cohort 5, single oral 80 mg, fasted): 536 h
AUC(0-inf) [1, 13]: 84.6 µg·h/mL
Cmax [1, 13]: 165 ng/mL
Vd/F ([1]; po, 80 mg, Cohort 5, single oral 80 mg, fasted, mean, read-out: Vz/F): 761 L
Tmax ([1]; po, 80 mg, Cohort 5, single oral 80 mg, fasted, median, read-out: Tmax): 4.01 h
half-life ([1]; po, 160 mg, Cohort 6, single oral 160 mg, fasted): 618 h
AUC(0-inf) [1, 14]: 109 µg·h/mL
Cmax [1, 14]: 180 ng/mL
Vd/F ([1]; po, 160 mg, Cohort 6, single oral 160 mg, fasted, mean, read-out: Vz/F): 1400 L
Tmax ([1]; po, 160 mg, Cohort 6, single oral 160 mg, fasted, median, read-out: Tmax): 6 h
half-life ([1]; po, 320 mg, Cohort 7, single oral 320 mg, Fasted): 873 h
AUC(0-inf) [1, 15]: 242 µg·h/mL
Cmax [1, 15]: 338 ng/mL
Vd/F ([1]; po, 320 mg, Cohort 7, single oral 320 mg, Fasted, mean, read-out: Vz/F): 1650 L
Tmax ([1]; po, 320 mg, Cohort 7, single oral 320 mg, Fasted, median, read-out: Tmax): 5 h
half-life ([1]; po, 320 mg, Cohort 8, single oral 320 mg, Fed (high-fat breakfast)): 1470 h
AUC(0-inf) [1, 16]: 953 µg·h/mL
Cmax [1, 16]: 988 ng/mL
Vd/F ([1]; po, 320 mg, Cohort 8, single oral 320 mg, Fed (high-fat breakfast), mean, read-out: Vz/F): 741 L
Tmax ([1]; po, 320 mg, Cohort 8, single oral 320 mg, Fed (high-fat breakfast), median, read-out: Tmax): 6 h
Cmax [3, 17]: 5120 ng/mL
AUC(0-t) [3, 17]: 36.7 µg·h/mL
Cmax [3, 18]: 5510 ng/mL
AUC(0-t) [3, 18]: 40.1 µg·h/mL
Cmax [3, 19]: 8290 ng/mL
AUC(0-t) [3, 19]: 59.7 µg·h/mL
Cmax [3, 20]: 8390 ng/mL
AUC(0-t) [3, 20]: 61.6 µg·h/mL
Tmax ([3]; Day 14, High Dose (600 mg), 12 weeks): 5 h
Tmax ([3]; Day 14, Low Dose (300 mg), 12 weeks): 5 h
concentration at 12 weeks ([3]; 300 mg 12-week treatment group): 6750 ng/mL
concentration at 12 weeks ([3]; 600 mg 12-week treatment group): 12300 ng/mL
concentration at 24 weeks ([3]; 300 mg 24-week treatment group): 9230 ng/mL
concentration at 24 weeks ([3]; 600 mg 24-week treatment group): 15600 ng/mL
AUC(0-inf) [4, 21]: 49.4 µg·h/mL
Cmax [4, 21]: 1910 ng/mL
AUC(0-t) [4, 21]: 24.6 µg·h/mL
Tmax ([4]; DDI Cohort, Day 3, median): 4 h
AUC(0-inf) [4, 22]: 4880 µg·h/mL
Cmax [4, 22]: 11600 ng/mL
AUC(0-t) [4, 22]: 243 µg·h/mL
Tmax ([4]; DDI Cohort, Day 16, median): 6 h
AUC(0-inf) [4, 23]: 57.3 µg·h/mL
Cmax [4, 23]: 1900 ng/mL
AUC(0-t) [4, 23]: 26.1 µg·h/mL
Tmax ([4]; PKE Cohort, Day 1, median): 6 h
concentration at 12 week ([5]; 150 mg, Week 12, maximum concentration, read-out: mean (SD) plasma concentration): 3400 ng/mL
concentration at 48 week ([5]; 150 mg, Week 48, read-out: mean (SD) plasma concentration): 1150 ng/mL
concentration at 14 day ([5]; Day 14, after loading 150 mg QD for 7 days, read-out: mean (SD) plasma concentration): 1680 ng/mL
SMILES: O[C@@](Cn1cnnn1)(c1ccc(F)cc1F)C(F)(F)c1ccc(-c2ccc(OCC(F)(F)F)cc2)cn1 [Oteseconazole, oteseconazole]
therapeutic cure ([2]; high dose group): 21.4%
therapeutic cure ([2]; low dose group): 16.7%
therapeutic cure ([2]; mid dose group): 8.3%
efficacy of enhanced loading dose compared with fluconazole ([6]; 600 mg Day 1 and 450 mg Day 2 versus fluconazole three 150 mg doses 72 hours apart): noninferior to fluconazole
average percentage of subjects with 1 or more culture-verified acute VVC episodes ([6]; including subjects who had a recurrence during the Induction Phase): 5.1%
